Laboratory results published in patent publication US20250059198A1, “BRM DEGRADING COMPOUNDS AND ASSOCIATED METHODS OF USE” (Arvinas Operations, Inc., priority 2021, published 2025).

Molecular target: T1, BRM (Homo sapiens, UniProt P51531)
T1 construct: Western Blot Screen of BRM Degradation in SW1573 Cells; endogenous in cells; host or cells: SW1573 cells
Assay: BRM degradation (Dmax and DC50) in SW1573 cells, Western blot screen / In-Cell Western screen
Type: cell-based
Conditions: overnight (18-20 hours) treatment; for Dmax: read-out: Dmax (%)** (% degraded)
Outline: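 Dmax and DC50 were derived from BRM levels normalised to an alpha-tubulin control, measured by chemiluminescent Western blotting of lysates or by PFA-fixed In-Cell Western on LI-COR Odyssey. SW1573 cells received compound overnight (18–20 h, 0.1% DMSO final).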

T1 sequence (P51531 whole entry): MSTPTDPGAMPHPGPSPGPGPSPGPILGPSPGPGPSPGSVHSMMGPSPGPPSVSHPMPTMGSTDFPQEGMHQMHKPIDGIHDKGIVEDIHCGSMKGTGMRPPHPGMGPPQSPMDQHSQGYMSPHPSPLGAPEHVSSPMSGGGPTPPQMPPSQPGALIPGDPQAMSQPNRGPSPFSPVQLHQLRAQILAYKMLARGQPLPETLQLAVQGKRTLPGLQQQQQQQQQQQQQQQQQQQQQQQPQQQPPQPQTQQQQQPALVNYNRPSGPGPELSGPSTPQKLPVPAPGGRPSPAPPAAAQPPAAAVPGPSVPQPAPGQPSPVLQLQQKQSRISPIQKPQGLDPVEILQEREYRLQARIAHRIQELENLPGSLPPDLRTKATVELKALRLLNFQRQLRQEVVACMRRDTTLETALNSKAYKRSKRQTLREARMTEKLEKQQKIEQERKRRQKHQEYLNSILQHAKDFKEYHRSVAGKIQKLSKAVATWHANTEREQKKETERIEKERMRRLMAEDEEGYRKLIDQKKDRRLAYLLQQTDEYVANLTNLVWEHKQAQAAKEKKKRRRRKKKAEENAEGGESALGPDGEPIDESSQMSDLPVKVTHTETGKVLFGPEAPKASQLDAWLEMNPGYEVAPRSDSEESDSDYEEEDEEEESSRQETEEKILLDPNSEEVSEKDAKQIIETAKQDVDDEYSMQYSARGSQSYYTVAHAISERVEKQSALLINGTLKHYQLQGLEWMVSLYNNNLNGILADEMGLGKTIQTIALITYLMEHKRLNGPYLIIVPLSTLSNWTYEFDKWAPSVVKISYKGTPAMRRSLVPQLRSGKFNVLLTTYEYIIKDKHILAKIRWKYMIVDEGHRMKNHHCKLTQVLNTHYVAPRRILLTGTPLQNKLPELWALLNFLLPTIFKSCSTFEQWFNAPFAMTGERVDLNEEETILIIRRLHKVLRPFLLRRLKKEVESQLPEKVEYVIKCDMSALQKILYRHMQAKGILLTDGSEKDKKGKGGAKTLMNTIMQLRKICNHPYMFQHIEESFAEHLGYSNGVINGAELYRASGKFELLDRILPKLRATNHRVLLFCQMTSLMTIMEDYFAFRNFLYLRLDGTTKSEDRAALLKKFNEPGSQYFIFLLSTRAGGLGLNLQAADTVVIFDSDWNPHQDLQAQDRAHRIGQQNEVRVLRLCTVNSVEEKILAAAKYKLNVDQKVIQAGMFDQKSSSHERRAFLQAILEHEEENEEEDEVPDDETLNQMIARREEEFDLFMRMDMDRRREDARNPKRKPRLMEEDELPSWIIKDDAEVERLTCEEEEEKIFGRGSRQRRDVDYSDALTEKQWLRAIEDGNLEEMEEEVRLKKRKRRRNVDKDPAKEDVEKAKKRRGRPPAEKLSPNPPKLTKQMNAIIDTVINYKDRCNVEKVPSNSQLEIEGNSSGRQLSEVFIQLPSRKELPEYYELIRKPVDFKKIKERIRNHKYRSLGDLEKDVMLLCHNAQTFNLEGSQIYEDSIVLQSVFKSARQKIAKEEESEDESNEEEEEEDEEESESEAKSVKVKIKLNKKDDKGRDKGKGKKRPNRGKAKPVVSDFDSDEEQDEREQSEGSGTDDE

Row | SMILES | DC50 [nM] | Dmax [%]
1 | Cc1ncsc1-c1ccc([C@H](C)NC(=O)[C@@H]2C[C@@H](O)CN2C(=O)[C@@H](c2cc(N3CCC(CN4CCC5(CC4)CC(N4CCOC6(CN(CC7C8CCC7CN(c7cc(-c9ccccc9O)nnc7N)C8)C6)C4)C5)CC3)no2)C(C)C)cc1 (stereo partly drawn) [Compound 125, (2S,4R)-1-[(2R)-2-{3-[4-({2-[2-({3-[3-amino-6-(2-hydroxyphenyl)pyridazin-4-yl]-3-azabicyclo[3.2.1]octan-8-yl}methyl)-5-oxa-2,8-diazaspiro[3.5]nonan-8-yl]-7-azaspiro[3.5]nonan-7-yl}methyl)piperidin-1-yl]-1,2-oxazol-5-yl}-3-methylbutanoyl]-4-hydroxy-N-[(1S)-1-[4-(4-methyl-1,3-thiazol-5-yl)phenyl]ethyl]pyrrolidine-2-carboxamide] | < 2.5 | > 75
2 | CC(C)[C@H](C(=O)N1C[C@H](O)C[C@H]1C(=O)N[C@@H](C)c1ccc(C#N)cc1)c1cc(O[C@H]2C[C@H](C(C)(C)N3CCC(O[C@H]4C[C@H](Oc5cc(N6C7CCC6CN(c6cc(-c8ccccc8O)nnc6N)C7)ccn5)C4)CC3)C2)no1 [Compound 93, (2S,4R)-N-[(1S)-1-(4-cyanophenyl)ethyl]-4-hydroxy-1-[(2S)-3-methyl-2-{3-[(1r,3r)-3-(2-{4-[(1r,3r)-3-[(4-{3-[3-amino-6-(2-hydroxyphenyl)pyridazin-4-yl]-3,8-diazabicyclo[3.2.1]octan-8-yl}pyridin-2-yl)oxy]cyclobutoxy]piperidin-1-yl}propan-2-yl)cyclobutoxy]-1,2-oxazol-5-yl}butanoyl]pyrrolidine-2-carboxamide] | ≥ 30 | –
3 | Cc1ncsc1-c1ccc([C@H](C)NC(=O)[C@@H]2C[C@@H](O)CN2C(=O)[C@@H](c2cc(N3CCC(CN4CCC5(CC4)CC(N4CCO[C@@H]([C@H](C)n6cc(C#Cc7cc(-c8ccccc8O)nnc7N)cn6)C4)C5)CC3)no2)C(C)C)cc1 [Compound 97, (2S,4R)-1-[(2R)-2-{3-[4-({2-[(2R)-2-[(1S)-1-(4-{2-[3-amino-6-(2-hydroxyphenyl)pyridazin-4-yl]ethynyl}-1H-pyrazol-1-yl)ethyl]morpholin-4-yl]-7-azaspiro[3.5]nonan-7-yl}methyl)piperidin-1-yl]-1,2-oxazol-5-yl}-3-methylbutanoyl]-4-hydroxy-N-[(1S)-1-[4-(4-methyl-1,3-thiazol-5-yl)phenyl]ethyl]pyrrolidine-2-carboxamide] | < 2.5 | > 75
4 | Cc1ncsc1-c1ccc([C@H](C)NC(=O)[C@@H]2C[C@@H](O)CN2C(=O)[C@H](c2cc(O[C@H]3C[C@H](CN4CCC(O[C@H]5C[C@H](N6CCOC7(CCN(c8cc(-c9ccccc9O)nnc8N)CC7)C6)C5)CC4)C3)no2)C(C)C)cc1 [Compound 67, (2S,4R)-4-hydroxy-N-[(1S)-1-[4-(4-methyl-1,3-thiazol-5-yl)phenyl]ethyl]-1-[(2S)-3-methyl-2-{3-[(1r,3r)-3-({4-[(1r,3r)-3-{9-[3-amino-6-(2-hydroxyphenyl)pyridazin-4-yl]-1-oxa-4,9-diazaspiro[5.5]undecan-4-yl}cyclobutoxy]piperidin-1-yl}methyl)cyclobutoxy]-1,2-oxazol-5-yl}butanoyl]pyrrolidine-2-carboxamide] | 10 to 30 | > 75
5 | Cc1ncsc1-c1ccc([C@H](C)NC(=O)[C@@H]2C[C@@H](O)CN2C(=O)C(c2cc(N3CCC(OC(=O)N4CCC(O[C@H]5C[C@H](Oc6cc(N7CCN(c8cc(-c9ccccc9O)nnc8N)CC7)ccn6)C5)CC4)CC3)no2)C(C)C)cc1 (stereo partly drawn) [Compound 145, 1-(5-{1-[(2S,4R)-4-hydroxy-2-{[(1S)-1-[4-(4-methyl-1,3-thiazol-5-yl)phenyl]ethyl]carbamoyl}pyrrolidin-1-yl]-3-methyl-1-oxobutan-2-yl}-1,2-oxazol-3-yl)piperidin-4-yl 4-[(1r,3r)-3-[(4-{4-[3-amino-6-(2-hydroxyphenyl)pyridazin-4-yl]piperazin-1-yl}pyridin-2-yl)oxy]cyclobutoxy]piperidine-1-carboxylate] | 2.5 to 10 | > 75
6 | Cc1ncsc1-c1ccc([C@H](C)NC(=O)[C@@H]2C[C@@H](O)CN2C(=O)[C@@H](c2cc(N3CCC(OC(=O)N4CCC(O[C@H]5C[C@H](Oc6cc(N7C8CCC7CN(c7cc(-c9ccccc9O)nnc7N)C8)ccn6)C5)CC4)CC3)no2)C(C)C)cc1 [Compound 117, 1-{5-[(2R)-1-[(2S,4R)-4-hydroxy-2-{[(1S)-1-[4-(4-methyl-1,3-thiazol-5-yl)phenyl]ethyl]carbamoyl}pyrrolidin-1-yl]-3-methyl-1-oxobutan-2-yl]-1,2-oxazol-3-yl}piperidin-4-yl 4-[(1r,3r)-3-[(4-{3-[3-amino-6-(2-hydroxyphenyl)pyridazin-4-yl]-3,8-diazabicyclo[3.2.1]octan-8-yl}pyridin-2-yl)oxy]cyclobutoxy]piperidine-1-carboxylate] | < 2.5 | > 75
7 | CC(C)[C@@H](C(=O)N1C[C@H](O)C[C@H]1C(=O)N[C@@H](C)c1ccc(-c2ccnn2C)cc1)c1cc(N2CCC(CN3CCC(Oc4cc(/C=C(\F)c5cc(-c6ccccc6O)nnc5N)ccn4)CC3)CC2)no1 [Compound 52, (2S,4R)-1-[(2R)-2-{3-[4-({4-[(4-{2-[3-amino-6-(2-hydroxyphenyl)pyridazin-4-yl]-2-fluoroethenyl}pyridin-2-yl)oxy]piperidin-1-yl}methyl)piperidin-1-yl]-1,2-oxazol-5-yl}-3-methylbutanoyl]-4-hydroxy-N-[(1S)-1-[4-(1-methyl-1H-pyrazol-5-yl)phenyl]ethyl]pyrrolidine-2-carboxamide] | < 2.5 | > 75
8 | CC(C)[C@@H](C(=O)N1C[C@H](O)C[C@H]1C(=O)N[C@@H](C)c1ccc(C#N)cc1)c1cc(N2CCN(C(=O)N3CCC(O[C@H]4C[C@H](Oc5cc(N6C7CCC6CN(c6cc(-c8ccccc8O)nnc6N)C7)ccn5)C4)CC3)CC2)no1 [Compound 140, (2S,4R)-N-[(1S)-1-(4-cyanophenyl)ethyl]-4-hydroxy-1-[(2R)-3-methyl-2-[3-(4-{4-[(1r,3r)-3-[(4-{3-[3-amino-6-(2-hydroxyphenyl)pyridazin-4-yl]-3,8-diazabicyclo[3.2.1]octan-8-yl}pyridin-2-yl)oxy]cyclobutoxy]piperidine-1-carbonyl}piperazin-1-yl)-1,2-oxazol-5-yl]butanoyl]pyrrolidine-2-carboxamide] | < 2.5 | > 75
9 | Cc1ncsc1-c1ccc([C@H](C)NC(=O)[C@@H]2C[C@@H](O)CN2C(=O)[C@@H](c2cc(N3CCC(CN4CC[C@@H](Oc5cc(N6C7CCC6CN(c6cc(-c8ccccc8O)nnc6N)C7)ccn5)[C@H](F)C4)CC3)no2)C(C)C)cc1 [Compound 59, (2S,4R)-1-[(2R)-2-[3-(4-{[(3R,4R)-4-[(4-{3-[3-amino-6-(2-hydroxyphenyl)pyridazin-4-yl]-3,8-diazabicyclo[3.2.1]octan-8-yl}pyridin-2-yl)oxy]-3-fluoropiperidin-1-yl]methyl}piperidin-1-yl)-1,2-oxazol-5-yl]-3-methylbutanoyl]-4-hydroxy-N-[(1S)-1-[4-(4-methyl-1,3-thiazol-5-yl)phenyl]ethyl]pyrrolidine-2-carboxamide] | 10 to 30 | > 75
10 | Cc1ncsc1-c1ccc([C@H](C)NC(=O)[C@@H]2C[C@@H](O)CN2C(=O)[C@@H](c2cc(N3CCC(CN4CCC5(CC4)CC(N4CCN(C)[C@H](CN6C7CCC6CN(c6cc(-c8ccccc8O)nnc6N)C7)C4)C5)CC3)no2)C(C)C)cc1 [Compound 132, (2S,4R)-1-[(2R)-2-{3-[4-({2-[(3S)-3-({3-[3-amino-6-(2-hydroxyphenyl)pyridazin-4-yl]-3,8-diazabicyclo[3.2.1]octan-8-yl}methyl)-4-methylpiperazin-1-yl]-7-azaspiro[3.5]nonan-7-yl}methyl)piperidin-1-yl]-1,2-oxazol-5-yl}-3-methylbutanoyl]-4-hydroxy-N-[(1S)-1-[4-(4-methyl-1,3-thiazol-5-yl)phenyl]ethyl]pyrrolidine-2-carboxamide] | < 2.5 | > 75
11 | Cc1ncsc1-c1ccc([C@H](C)NC(=O)[C@@H]2C[C@@H](O)CN2C(=O)[C@H](c2cc(OCCOC(=O)N3CCC(O[C@H]4C[C@H](Oc5cc(N6C7CCC6CN(c6cc(-c8ccccc8O)nnc6N)C7)ccn5)C4)CC3)no2)C(C)C)cc1 [Compound 134, 2-({5-[(2S)-1-[(2S,4R)-4-hydroxy-2-{[(1S)-1-[4-(4-methyl-1,3-thiazol-5-yl)phenyl]ethyl]carbamoyl}pyrrolidin-1-yl]-3-methyl-1-oxobutan-2-yl]-1,2-oxazol-3-yl}oxy)ethyl 4-[(1r,3r)-3-[(4-{3-[3-amino-6-(2-hydroxyphenyl)pyridazin-4-yl]-3,8-diazabicyclo[3.2.1]octan-8-yl}pyridin-2-yl)oxy]cyclobutoxy]piperidine-1-carboxylate] | ≥ 30 | –
12 | CC(C)[C@@H](C(=O)N1C[C@H](O)C[C@H]1C(=O)N[C@@H](C)c1ccc(-c2ccnn2C)cc1)c1cc(N2CCC(CN3CCC(O[C@H]4C[C@H](N5CCOC6(CCN(c7cc(-c8ccccc8O)nnc7N)CC6)C5)C4)CC3)CC2)no1 [Compound 28, (2S,4R)-4-hydroxy-N-[(1S)-1-[4-(1-methyl-1H-pyrazol-5-yl)phenyl]ethyl]-1-[(2R)-3-methyl-2-{3-[4-({4-[(1r,3r)-3-{9-[3-amino-6-(2-hydroxyphenyl)pyridazin-4-yl]-1-oxa-4,9-diazaspiro[5.5]undecan-4-yl}cyclobutoxy]piperidin-1-yl}methyl)piperidin-1-yl]-1,2-oxazol-5-yl}butanoyl]pyrrolidine-2-carboxamide] | < 2.5 | > 75
